Measurements published in patent US11999700B1, “[4,4-bis(4-nitrophenyl)-2,5-dioxoimidazolidin-1-yl]acetic acid as an antimicrobial compound” (KING FAISAL UNIVERSITY, priority 2023, dated 2024).

Assays:
Type in all cases: cell-based
[1] = system: Candida albicans; assay: Antimicrobial testing by agar dilution, Candida albicans; conditions: Candida albicans fungi, after 10, 20, 40 and 60 minutes at all dilutions 1:100, 1:200, 1:400, 1:800
Description: (§1) The antimicrobial properties of the [4,4-bis(4-nitrophenyl)-2,5-dioxoimidazolidin-1-yl]acetic acid were studied by the method of agar dilution. Test solutions of each compound was prepared in concentration of 1% using dimethylformamide as a solvent then they are diluted in physiological solution to obtain the final experimental dilutions 1:100, 1:200, 1:400, 1:800. The effect of these substances are compared with furacillin in a controlable study. The testing microbes used were gram positive bacteria Staphylococcus Aereus, gram negative bacteria Escherichia Coli, Pseudomonas aeruginosa and Candida albicans fungi were taken.
(§2) The experiments used for this survey were meat-pentonlu agar (EPA) for cultivation of bacteria and Saburo environment for fungi. Each experiment used 1 ml of test solution on each plate 500 min. Add 2 drops of emulsified with microbes feel. All experimental samples were taken from the agar after 10, 20, 40, 60 minutes in the environment on the basis of Patrk planted. Bacteria were cultivated at a temperature of 37° C. for 1 day and the mushroom was kept in a thermostat for […] at a temperature of 28° C. in the. Then results were checked.

[2] = system: Pseudomonas aeruginosa; assay: Antimicrobial testing by agar dilution, Ps. aeruginosa; conditions: after 10, 20, 40 and 60 minutes at all dilutions 1:100, 1:200, 1:400, 1:800
Description: as §1, §2

[3] = system: Escherichia Coli; assay: Antimicrobial testing by agar dilution, E. Coli; conditions: after 10, 20, 40 and 60 minutes at all dilutions 1:100, 1:200, 1:400, 1:800
Description: as §1, §2

[4] = system: Staphylococcus Aereus; assay: Antimicrobial testing by agar dilution, St. Aereus; conditions: after 10, 20, 40 and 60 minutes at all dilutions 1:100, 1:200, 1:400, 1:800
Description: as §1, §2

Measured: inhibition activity

O=C(O)CN1C(=O)NC(c2ccc([N+](=O)[O-])cc2)(c2ccc([N+](=O)[O-])cc2)C1=O [[4,4-bis(4-nitrophenyl)-2,5-dioxoimidazolidin-1-yl]acetic acid]
higher inhibition activity: all assays above
